# Patent US12070464B2, “Methods of treating myeloproliferative disorders” (priority 2019, dated 2024)
# Where two headings read alike, the source gives them in different places.
# What was measured:
# [1] = system: patients with refractory or intolerant advanced myelofibrosis; assay: Phase 2 study, Arms 1 and 2 together (monotherapy or add-on to ruxolitinib); assay type: in vivo, human
# Procedure: A Phase 2 study of Compound 1 in subjects with myelofibrosis (MF) was conducted. Three treatment arms were studied:
# (§1) Arm 1=monotherapy with Compound 1 in patients (pts) who are no longer on Rux and are with refractory, intolerant, or ineligible. In this arm patients were further stratified based on transfusion dependence status [transfusion dependent (TD), defined as an average of >2 units per month over 12 wks, or non-TD cohorts]. Primary endpoint: spleen volume response (SVR) for non-TD cohorts or TD to transfusion independence (TI, no transfusion for consecutive 12 wks) conversion for TD cohorts; secondary endpoints: change in total symptom score (TSS) per MFSAF v4.0, patient global impression of change (PGIC), safety and PK; additional endpoints: changes in proinflammatory Ck levels, BM morphology and mutant allele burden.
# as §1, with “2=combination add-on treatment of” for “1=monotherapy with”, “already being administered Rux.” for “no longer on Rux and are with refractory, intolerant, or ineligible.”, “cohorts]. The starting dose of Compound 1 was 125 mg daily on days 1-14 of a 21-day cycle in both arms.” for “cohorts].”
# The starting dose of Compound 1 was 125 mg given orally, once daily for 2 weeks on/1 week off in a 21-day dosing cycle. Two separate time points for data analysis occurred for at least Arms 1 and 2 and are discussed below: one at approximately 12 weeks of treatment (first assessment of spleen volume by MRI or CT and every 12 weeks thereafter) and another at approximately 24 weeks of treatment (first assessment of bone marrow biopsy and every 24 weeks thereafter). Patients were added to the study following the first time point.
# Demographics and results are as follows: At baseline, median age: 69 years (41-88), gender: 28 (58%) male, ECOG <1: 45 (94%) patients, primary MF: 33 (69%) patients, DIPSS score high: 10 (21%) patients, median platelet: 199 x 1091 (77-895), 34 (71%) patients with Hgb <10 g/dL, median spleen volume: 2183 cc (123-3909), median TSS: 17.6 (1.4-56), 46 (96%) patients had ≥1 JAK2/MPL/CALR mutations, and 34 (71%) patients had HMR (high molecular risk) mutations. 33 (69%) patients on treatment for ≥12 wks, 4 on treatment for >18 months.
# [2] = system: patients with refractory or intolerant myelofibrosis no longer on Rux; assay: Phase 2 study, Arm 1 (Compound 1 monotherapy); assay type: in vivo, human; settings: for average spleen volume reduction: 24 weeks, FIG. 13A
# Procedure: A Phase 2 study of Compound 1 in subjects with myelofibrosis (MF) was conducted. Three treatment arms were studied: Arm 1=monotherapy with Compound 1 in patients (pts) who are no longer on Rux and are with refractory, intolerant, or ineligible. In this arm patients were further stratified based on transfusion dependence status [transfusion dependent (TD), defined as an average of >2 units per month over 12 wks, or non-TD cohorts]. Primary endpoint: spleen volume response (SVR) for non-TD cohorts or TD to transfusion independence (TI, no transfusion for consecutive 12 wks) conversion for TD cohorts; secondary endpoints: change in total symptom score (TSS) per […]4.0, patient global impression of change (PGIC), safety and PK; additional endpoints: changes in proinflammatory Ck levels, BM morphology and mutant allele burden. The starting dose of Compound 1 was 125 mg given orally, once daily for 2 weeks on/1 week off in a 21-day dosing cycle. Two separate time points for data analysis occurred for at least Arms 1 and 2 and are discussed below: one at approximately 12 weeks of treatment (first assessment of spleen volume by MRI or CT and every 12 weeks thereafter) and another at approximately 24 weeks of treatment (first assessment of bone marrow biopsy and every 24 weeks thereafter). Patients were added to the study following the first time point. Patients were added to the study following the first data cut and treatment was continued for approximately 25.9 weeks (median, range: 0.4, 116.6).
# [3] = system: CD34+ cells isolated from the bone marrow of two healthy donors; assay: Megakaryocyte differentiation and proliferation, alone and with ruxolitinib, 10 days (FACS); assay type: cell-based; settings: 240 h, 10 days
# Source text: The cells were then harvested for FACS analysis with live/dead stain and gating with CD34 (progenitor marker) and CD41a and CD42b (mature megakaryocyte markers).
# [4] = Time Point 2, Arms 1 and 2, FIG. 14
compound,measurement,setting,value
"Cc1noc2c1-c1ccccc1C(c1ccc(Cl)cc1)=N[C@H]2CC(N)=O [Compound 1, 2-((4S)-6-(4-chlorophenyl)-1-methyl-4H-benzo[c]isoxazolo[4,5-e]azepin-4-yl)acetamide]",most common (≥20%) treatment-emergent adverse events of any Gr,[1]; Time Point 1,"diarrhea, nausea, cough and upper respiratory tract infection"
same,≥3 Gr TEAE anemia,[1]; Time Point 1,8.3%
same,patients with improvement in BM fibrosis and/or reticulin by ≥1 Gr,"[1]; Time Point 1, 7 of 12 evaluable patients, as early as 6-months",58%
same,patients with ≥50% TSS improvement,"[1]; Time Point 1, 11 patients",39%
same,patients reporting much or very much improved PGIC scores,"[1]; Time Point 1, 21 patients",64%
same,patients with TSS improvement,"[1]; Time Point 1, 26 of 28 patients, FIG. 8 panel B",93%
same,patients with PGIC improvement score,"[1]; Time Point 1, 28 of 33 patients",85%
same,patients with spleen volume reduction,"[1]; Time Point 1, 29 of 31 patients, FIG. 8 panel A",94%
same,≥3 Gr TEAE thrombocytopenia,"[1]; Time Point 1, asymptomatic, non-cumulative and generally reversible",8.3%
same,subjects with bone marrow fibrosis improvement,[1]; [4],about 38%
same,subjects with bone marrow fibrosis improvement as early as 6-months,[1]; [4],about 32%
same,tolerability,[1]; alone or add-on to ruxolitinib,generally well-tolerated
same,patients with increase in hemoglobin by 1.5 mg/dL post-baseline,"[2]; Time Point 1, monotherapy, 4 of 8",50%
same,average spleen volume reduction,"[2]; Time Point 2, TD patients (Cohort 1A)",about −3.2%
same,average spleen volume reduction,"[2]; Time Point 2, non-TD patients (Cohort 1B)",about −26%
same,patients with improved PGIC,"[2]; Time Point 2, TD patients",about 50%
same,patients with improvement in bone marrow fibrosis,"[2]; Time Point 2, TD patients",about 25%
same,patients with improved PGIC,"[2]; Time Point 2, non-TD patients",100%
same,patients with improvement in disease symptoms per TSS,"[2]; Time Point 2, non-TD patients",About 60%
same,EC50,"[3]; Donor 1, percent of cells double positive for CD41a and CD42b, read-out: Megakaryocyte differentiation EC50",60 nM
same,EC50,"[3]; Donor 1, read-out: Megakaryocyte live count EC50",26 nM
same,EC50,"[3]; Donor 1, read-out: Total live count EC50",43 nM
same,EC50,"[3]; Donor 1, read-out: Viability EC50",300 nM
same,EC50,"[3]; Donor 2, percent of cells double positive for CD41a and CD42b, read-out: Megakaryocyte differentiation EC50",131 nM
same,EC50,"[3]; Donor 2, read-out: Megakaryocyte live count EC50",29 nM
same,EC50,"[3]; Donor 2, read-out: Total live count EC50",32 nM
same,EC50,"[3]; Donor 2, read-out: Viability EC50",> 500 nM
same,EC50,"[3]; Mean of two donors, read-out: Megakaryocyte differentiation EC50",96 nM
same,EC50,"[3]; Mean of two donors, read-out: Megakaryocyte live count EC50",28 nM
same,EC50,"[3]; Mean of two donors, read-out: Total live count EC50 (overall cell proliferation)",38 nM
same,EC50,"[3]; Mean of two donors, read-out: Viability EC50",400 nM
same,EC50,"[3]; in the presence of 250 nM ruxolitinib, extrapolated, below the lowest dose tested, read-out: overall cell proliferation mean EC50 in the presence of ruxolitinib",17 nM
